Assay results published in the NIST ThermoML archive (doi:10.1021/acs.jced.8b00182).

Columns and labels:
[1] = Liquid; for vapor or sublimation pressure / Normal boiling temperature: Ebulliometric method (Recirculating still); for mass density: 298.15 K, 100 kPa, Vibrating tube method
[2] = refractive index (Na D-line) (dimensionless); conditions: 298.15 K; 101.33 kPa; Liquid; Standard Abbe refractometry
[3] = xn = mol fraction of the nth substance listed; conditions: 298.15 K, 100 kPa, Liquid, Vibrating tube method

CO [methanol]
Conditions | vapor or sublimation pressure [kPa]
[1], 348.27 K | 150

Conditions | Normal boiling temperature [°C] | refractive index
[1] | 64.70 | –
[2] | – | 1.32676

CCCCOC(C)=O [butyl ethanoate] + CCCO
[3]
Conditions | mass density [kg/m3]
x1 = 0.0433 | 805.1
x1 = 0.1028 | 812.1
x1 = 0.2026 | 822.6
x1 = 0.2517 | 827.3
x1 = 0.2927 | 831
x1 = 0.35 | 835.9
x1 = 0.3986 | 839.8
x1 = 0.4482 | 843.6
x1 = 0.554 | 851.1
x1 = 0.5962 | 853.9
x1 = 0.6371 | 856.5
x1 = 0.7071 | 860.8
x1 = 0.7623 | 864
x1 = 0.8001 | 866.1
x1 = 0.8413 | 868.4
x1 = 0.8942 | 871.2
x1 = 0.9401 | 873.5
x1 = 1 | 876.5

CCCCOC(C)=O [butyl ethanoate]
Conditions | Normal boiling temperature [°C] | mass density [kg/m3] | refractive index
[1] | 125.83 | 876.5 | –
[2] | – | – | 1.39201

Conditions | vapor or sublimation pressure [kPa]
[1], 413.3 K | 150

CCCCO [butan-1-ol]
Conditions | mass density [kg/m3] | refractive index
[1] | 805.9 | –
[2] | – | 1.39732

Conditions | vapor or sublimation pressure [kPa]
[1], 402.59 K | 150

CCCCOC(C)=O [butyl ethanoate] + CCO
[3]
Conditions | mass density [kg/m3]
x1 = 0.0443 | 793.7
x1 = 0.1461 | 810.2
x1 = 0.2003 | 817.6
x1 = 0.2554 | 824.3
x1 = 0.2954 | 828.8
x1 = 0.3487 | 834.3
x1 = 0.4451 | 843
x1 = 0.4968 | 847.2
x1 = 0.5987 | 854.6
x1 = 0.6505 | 858
x1 = 0.7492 | 863.9
x1 = 0.8035 | 866.9
x1 = 0.8567 | 869.7
x1 = 0.8978 | 871.7
x1 = 0.9429 | 873.9
x1 = 1 | 876.5

CCO [ethanol] + CCCCOC(C)=O
Conditions | mass density [kg/m3]
[3], x2 = 0 | 785.2

CCCCO [butan-1-ol] + CCCCOC(C)=O
Conditions | mass density [kg/m3]
[3], x2 = 0 | 805.9

CCO [ethanol]
Conditions | Normal boiling temperature [°C] | mass density [kg/m3] | refractive index
[1] | 78.30 | 785.2 | –
[2] | – | – | 1.35933

Conditions | vapor or sublimation pressure [kPa]
[1], 361.98 K | 150

CCCCOC(C)=O [butyl ethanoate] + CCCCO
[3]
Conditions | mass density [kg/m3]
x1 = 0.0758 | 812.9
x1 = 0.1018 | 815.2
x1 = 0.1458 | 819
x1 = 0.2387 | 826.7
x1 = 0.3151 | 832.7
x1 = 0.3468 | 835.1
x1 = 0.3845 | 837.9
x1 = 0.3983 | 838.9
x1 = 0.4316 | 841.3
x1 = 0.5002 | 846.1
x1 = 0.5883 | 852
x1 = 0.6709 | 857.3
x1 = 0.7064 | 859.5
x1 = 0.7919 | 864.7
x1 = 0.8673 | 869.1
x1 = 0.9259 | 872.4
x1 = 0.9503 | 873.8
x1 = 1 | 876.5

CCCO [propan-1-ol]
Conditions | Normal boiling temperature [°C] | mass density [kg/m3] | refractive index
[1] | 97.20 | 799.6 | –
[2] | – | – | 1.38315

Conditions | vapor or sublimation pressure [kPa]
[1], 381.24 K | 150

CCCO [propan-1-ol] + CCCCOC(C)=O
Conditions | mass density [kg/m3]
[3], x2 = 0 | 799.6
